Assay results: patent US7193044B1, “Compounds and methods for regulating apoptosis, and methods of making and screening for compounds that regulate apoptosis” (Immunogen, Inc., priority 2000, dated 2007)
Entries after “also recorded” stand apart in the source; their conditions may differ. Residues, ends and D or L forms follow the SMILES beside them. *: point of attachment. Cbz = O=C(OCc1ccccc1)*; CH2F = FC*

Experiments:
HeLa cells [1] = test: Beta-gal ELISA apoptosis assay in transfected HeLa cells; assay type: cell-based, human; details: transfected cells, data not shown
Description: Because BAD Ser155 phosphorylation, like Ser136 phosphorylation, prevents BAD from binding to Bcl-XL (FIG. 1), it was possible that by analogy, Ser155 dephosphorylation promotes cell death. To test this idea, HeLa cells were co-transfected with BAD or various BAD serine mutants and a β-gal reporter plasmid. Twenty-four hours post-transfection, cell viability was analyzed by β-gal ELISA.
To test this idea, HeLa cells were again co-transfected with BAD or various BAD serine mutants and a β-gal reporter plasmid. Forskolin was then added to half of the cultures while the other half was left untreated. Beta-gal ELISAs were performed 24 hours post transfection. […] Thus, phosphorylation of Ser155 rescues cells from BAD-induced apoptosis, while substitution of Ser155 with a nonphosphorylatable residue results in increased cell death and the failure of cells to be protected from induced PKA activity.
Beta-gal ELISA assays were performed using the β-gal ELISA system from Boehringer Mannheim, according to manufacture's instructions. Cells were transfected with BAD (or BAD mutant) and β-gal in a ratio of 5:1. The transfected cells were trypsinized and distributed into 96-well tissue culture plates. […] The β-gal activity was measured by the absorbance of the sample at […]. Data were based on triplicate wells with standard deviations calculated.

HeLa cells [2] = test: Fluorescence-based beta-galactosidase assay of BAD-induced cell death in transfected HeLa cells; parameters: species or system human
Description: FIG. 12(B) is a graphic representation of the results of a β-galactosidase assay. HeLa cells were co-transfected with the β-galactosidase gene and either HA-BAD (“WT”), HA-BAD S155A (“S155A”), HA-BAD S112A/S136A (“S112A/S136A”) or HA-BAD S112A/S136A/S155A (“AAA”). Transfected cells were then cultured in serum-free medium (SFM) or SFM supplemented with EGF (SFM+EGF) for 12 hours. Cell lysates were prepared and BAD-induced cell death was measured by the loss of β-galactosidase activity in a fluorescence-based assay. Fluorescence was measured at 465 nm. Results shown are the average and standard deviation of triplicate transfections (this experiment was repeated two more times with similar results). Expression levels of HA-tagged BAD and BAD mutants in transfected cell lysates were detected by anti-HA western blot analysis: HA-BAD (“WT”), HA-BAD S155A (“A”), HA-BAD S112A/S136A (“AA”), and HA-BAD S112A/S136A/S155A (“AAA”).
FIG. 12(C) is a graphic representation of the results of a β-galactosidase assay. HeLa cells were co-transfected with the β-galactosidase gene and either an empty vector (“CTL”), wild-type BAD (“WT”), the BAD S155A mutant (“S155A”) or the BAD S155D mutant (“S155D”). Cell lysates were prepared and BAD-induced cell death was measured by the loss of β-galactosidase activity in a fluorescence-based assay. Fluorescence was measured at 465 nm. […]

[3] = system: BAD Ser155 phosphorylation in HeLa cells; test: BAD phosphorylation in HeLa cells (western blot band-shift / anti-phospho-Ser155 antibody); assay type: cell-based, human
Description: A mammalian expression vector encoding mutant HA-BAD S155A, derived from the shorter murine BAD of SEQ ID NO:3, was constructed. HA-BAD S155A has an amino acid sequence wherein the serine at a position corresponding to Ser155 is substituted with alanine. A western blot was performed on WCL prepared from cells expressing the shorter murine BAD (SEQ ID NO:3), HA-BAD S112A, HA-BAD S136A, or HA-BAD S155A, and probed with anti-HA antibody.
A western blot analysis, probed with anti-HA antibody, was performed on lysates produced from the Forskolin treated and untreated (control) cells to determine whether Forskolin could induce the phosphorylation BAD or mutant BAD.
HeLa cells transiently expressing HA-BAD, HA-BAD S155A, HA-BAD S112A/S136A, or HA-BAD S112A/S136A/S155A were treated with Forskolin or a buffer control.
The HA-BAD S112A/S136A double mutant was transiently expressed in HeLa cells, and transfected cell cultures were treated with each of the GPCR ligands, individually and as a group. A western blot analysis, probed with anti-HA antibody, was performed on lysates produced from the treated and untreated (negative control) cells. […] Forskolin (FK) and no treatment (−) were positive and negative controls, respectively (FIG. 6(a), […], respectively).
Non-transfected HeLa cells were treated with Forskolin or L-epinephrine, followed by western blot analysis of cell lysates using anti-BAD antibodies.
Transformants were treated with L-epinephrine, then lysed and subjected to anti-HA western blot analysis.
(§1) To further test whether phosphorylation of Ser155 is dependent on the PI 3-kinase/Akt pathway, HeLa cells were transfected with the mutant HA-BAD S155A and pretreated with Wortmannin, an inhibitor of PI 3-kinase. These cells were then stimulated with epidermal growth factor (EGF), lysed and analyzed by western blot analysis.
For immunoprecipitation of all HA-BAD species, 1 μg of the anti-HA antibody was added to the cell lysates, and incubated at 4° C. for one hour. Protein G agarose (Pierce) was then added (50 μl/fraction of 50% slurry) and followed by a one hour incubation at 4° C. Beads were washed with RIPA buffer, boiled in loading buffer (2% SDS, 10% glycerol, 5% β-ME, 60 mM Tris, pH 6.8, 0.002% Bromophenol Blue) and loaded onto polyacrylamide gels. After electrophoresis, proteins were transferred to nitrocellulose membranes, and blots blocked in western wash buffer (40 mM Tris, pH 8.0, 150 mM NaCl, 0.2% NP-40) with 5% BSA for one hour at room temperature. Blots were incubated with primary antibody diluted in western wash buffer with 3% BSA at room temperature for 1–2 hours, washed with western wash buffer and incubated with secondary HRP-coupled antibody diluted in western wash buffer with 1.5% BSA, and washed extensively. Polypeptides were detected with the ECL chemiluminescence according to the manufacturers instructions (Amersham).

[4] = system: BAD phosphorylation in Rat-1 cells; test: BAD phosphorylation in Rat-1 cells (western blot band-shift / anti-phospho-Ser155 antibody); assay type: cell-based
From the text: In the absence of a phospho-Ser155 antibody, it was difficult to conclude that this band-shift was solely the result of the phosphorylation of Ser155. However, it appeared that this response was at least primarily due to the phosphorylation at this site. This was based on the combined evidence, both in vitro and in cells, as described above (FIGS. 1, 2 and 4–7) and the fact that Ser155 is the only site of BAD homologous to the substrate consensus sequence of PKA.
Whether the BAD Ser155 kinase, PKA, is also activated by growth factors, and if so, whether such activation is PI 3-kinase dependent, was investigated. […] Cell lysates were analyzed via western blot analysis, probed using anti-HA antibody. […] However, the magnitude of phosphorylation was weaker and may be more transient, than the effect of Forskolin (FIG. 9(a)). Of note, Ser155 phosphorylation following IGF-1, EGF, or PDGF stimulation was not detected in HeLa cells (results not shown).
(§2) It has been documented that Akt kinase activity, the serine kinase shown to phosphorylate BAD Ser136, is induced by growth factors and is dependent on PI 3-kinase activation (Datta et al., 1997; del Peso et al., 1997). In related experiments, Rat-1 cells were pretreated with either the PKA inhibitor H89, or the PI 3-kinase inhibitor Wortmannin (available, e.g., from Sigma, St. Louis, Mo.), followed by stimulation with Forskolin (also available from Sigma) or PDGF. […] This indicated the shift was PKA dependent (FIG. 9(b), lower panel, compare lanes 5 and 6). […] It therefore presumably had no effect on PDGF-induced activation of PI 3-kinase.
To examine whether endogenous BAD is phosphorylated on Ser155 in response to growth factors, serum-starved Rat-1 fibroblasts were stimulated with PDGF. Whole cell lysates were prepared and endogenous BAD was immunoprecipitated. Proteins were separated by SDS-PAGE, and Ser155 phosphorylation was analyzed by Western blot using the phospho-S155 antibody and an anti-BAD antibody.

Akt [5] = test: Akt activation in Rat-1 cells (anti-phospho-S473 Akt western blot); assay type: cell-based; details: pretreatment then PDGF
Description: FIG. 9(B) is two western blots. Rat-1 cells transiently expressing HA-BAD S112A/S136A were treated with a buffer control, H89 (PKA inhibitor) or Wortmannin (PI 3-kinase inhibitor), prior to stimulation with Forskolin or platelet-derived growth factor (“PDGF”). Whole cell lysates were then prepared and proteins were separated by SDS-PAGE. Blots were separately probed with an anti-phospho-S473 Akt antibody (the kinase that phosphorylates Ser136) (upper panel) and an anti-BAD antibody (lower panel).
as §2

Akt [6] = test: Akt activation in HeLa cells (anti-phospho-S473 Akt western blot); assay type: cell-based, human; details: serum-starved HeLa cells, pretreatment then EGF
From the text: FIG. 10(B) is a series of western blots. Serum-starved HeLa cells expressing HA-BAD S155A, were pretreated with a buffer control (lanes 1 and 2), AG1478 (“AG”) (lane 3), Wortmannin (“Wm”) (lane 4), or H89 (lane 5). The cell cultures were then stimulated with a buffer control (lane 1) or EGF (lanes 2–5). Whole cell lysates were made from the cultures and the proteins were separated by SDS-PAGE. Blots were probed with either an anti-activated EGF receptor antibody (“activated EGFR”) (panel A), an anti-phospho-S473 Akt antibody (“pS473 Akt”) (panel B), or an anti-phospho-S155 BAD antibody (“pS155 BAD”) (panel D). Reblots were probed with either an anti-Akt antibody (“Akt”) (panel C) or an anti-HA BAD antibody (“HA-BAD”) (panel E).
as §1

## CC(NC(=O)C(NC(=O)OCc1ccccc1)C(C)C)C(=O)NC(CC(=O)O)C(=O)CF (stereo not drawn) [z-VAD, reference compound] (Cbz-Val-Ala-Asp-CH2F; configuration not given here)
HeLa cells [1]
  protection from BAD-induced apoptosis: efficiently protected the cells
HeLa cells [2]
  reversal of BAD-induced reduction of beta-gal activity: reversed

## EGF: epidermal growth factor
[3]; HeLa cells, results not shown
  Ser155 phosphorylation following growth factor stimulation: not detected
[3]; serum-starved transfected HeLa cells
  induction of Ser155 phosphorylation of HA-BAD S112A/S136: stimulated the phosphorylation of BAD on Ser155
[4]; transfected Rat-1 fibroblasts
  induction of band-shift of HA-BAD S112A/S136A: induced a band-shift
HeLa cells [2]; serum-free medium plus EGF for 12 hours
  suppression of pro-apoptotic function of BAD: suppressed the pro-apoptotic function of BAD

## O=S(=O)(NCCNC/C=C/c1ccc(Br)cc1)c1cccc2cnccc12 [H89, reference compound]
[3]; HeLa cells
  inhibition of L-epinephrine-induced band-shift of endogenous BAD: band-shift was sensitive to the PKA inhibitor, H89; also recorded: blocked L-epinephrine-induced BAD phosphorylation
[3]; HeLa cells, treatment for one hour
  basal phosphorylation of endogenous BAD: reduced basal phosphorylation of endogenous BAD
[3]; serum-starved HeLa cells transfected with HA-BAD S155A (so in the source), pretreatment then EGF, anti-phospho-S155 blot
  inhibition of EGF-induced phosphorylation of BAD on Ser155: BAD Ser155 phosphorylation was prevented
[3]; transfected HeLa cells
  inhibition of L-epinephrine-induced Ser155 phosphorylation of HA-BAD S112A/S136A: inhibitory effect of H89
[4]; Rat-1 cells
  inhibition of Forskolin-induced BAD band-shift: sensitive to the PKA inhibitor H89
[4]; Rat-1 cells, pretreatment then PDGF
  inhibition of PDGF-induced BAD band-shift/phosphorylation: significantly reduced
[4]; serum-starved Rat-1 cells, pretreatment
  inhibition of PDGF-induced Ser155 phosphorylation of endogenous BAD: significantly reduced
Akt [5]
  effect on PDGF-induced Akt activation: no effect on PDGF-induced Akt activation
Akt [6]
  effect on EGF-induced activation/phosphorylation of endogenous Akt: without affecting the phosphorylation of Akt
